The results in this text go back to publication PMC4522657, “Identification of a DYRK1A Inhibitor that Induces Degradation of the Target Kinase using Co-chaperone CDC37 fused with Luciferase nanoKAZ” (Scientific Reports, 2015).

The target of test [1] is T1, DYRK1B (Homo sapiens, UniProt Q9Y463). The experiment in a line: Western blot of target kinase expression in HEK293 cells. Particulars: CaNDY 2 μM, 4 days. It is filed as cell-based. Set-up: endogenous in cells; host or cells: HEK293. Here is the method: (§1) To check selectivity of CaNDY for other kinases, we first examined protein expression of several kinases in HEK293 cells treated with CaNDY (2 μM) for 4 days. […] Third, protein expression of these kinases targeted by CaNDY (DYRK1A, DYRK1B, CLK1, and Haspin) was reassessed by Western blot analysis as performed in Fig. 7b.
T1 sequence (Q9Y463 whole entry): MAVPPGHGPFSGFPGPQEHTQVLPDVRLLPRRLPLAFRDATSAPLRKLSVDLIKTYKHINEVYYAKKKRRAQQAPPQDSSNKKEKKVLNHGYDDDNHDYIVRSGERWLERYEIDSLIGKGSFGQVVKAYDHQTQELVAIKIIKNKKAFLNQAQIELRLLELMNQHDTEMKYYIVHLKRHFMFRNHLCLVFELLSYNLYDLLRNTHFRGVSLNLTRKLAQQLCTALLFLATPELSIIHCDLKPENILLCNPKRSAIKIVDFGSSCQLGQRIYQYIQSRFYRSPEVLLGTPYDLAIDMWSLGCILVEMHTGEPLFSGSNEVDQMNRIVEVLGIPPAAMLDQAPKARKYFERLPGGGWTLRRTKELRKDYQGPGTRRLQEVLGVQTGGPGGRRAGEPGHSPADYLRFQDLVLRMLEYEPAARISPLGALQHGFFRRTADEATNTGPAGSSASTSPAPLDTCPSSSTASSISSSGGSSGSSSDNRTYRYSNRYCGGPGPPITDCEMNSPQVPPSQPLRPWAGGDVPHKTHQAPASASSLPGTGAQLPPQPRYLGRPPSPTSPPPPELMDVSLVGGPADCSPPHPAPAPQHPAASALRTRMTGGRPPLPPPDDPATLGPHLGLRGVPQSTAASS
(§2) Western blot analysis was performed using the antibodies described above. In brief, total cell lysates were separated by SDS-PAGE (5–20% gels; ATTO, Tokyo, Japan) under reducing conditions and then transferred to a PVDF membrane (PALL, SP, Brazil). Antibody reactions were performed with Can Get Signal® Immunoreaction Enhancer Solution (Toyobo). Peroxidase activities on the membrane were visualized with ECL Western Blotting Detection Reagents (GE Healthcare) or ImmunoStar® LD (Wako Pure Chemical Industries, Osaka, Japan), and a ChemiDoc^TM MP Imaging System (Bio-Rad, Hercules, CA, USA).
In general terms: A western blot detects proteins with antibodies after separation by electrophoresis.

For a further test, the target named is T2, Haspin (Homo sapiens, UniProt Q8TF76).
T2 sequence (Q8TF76 1-798): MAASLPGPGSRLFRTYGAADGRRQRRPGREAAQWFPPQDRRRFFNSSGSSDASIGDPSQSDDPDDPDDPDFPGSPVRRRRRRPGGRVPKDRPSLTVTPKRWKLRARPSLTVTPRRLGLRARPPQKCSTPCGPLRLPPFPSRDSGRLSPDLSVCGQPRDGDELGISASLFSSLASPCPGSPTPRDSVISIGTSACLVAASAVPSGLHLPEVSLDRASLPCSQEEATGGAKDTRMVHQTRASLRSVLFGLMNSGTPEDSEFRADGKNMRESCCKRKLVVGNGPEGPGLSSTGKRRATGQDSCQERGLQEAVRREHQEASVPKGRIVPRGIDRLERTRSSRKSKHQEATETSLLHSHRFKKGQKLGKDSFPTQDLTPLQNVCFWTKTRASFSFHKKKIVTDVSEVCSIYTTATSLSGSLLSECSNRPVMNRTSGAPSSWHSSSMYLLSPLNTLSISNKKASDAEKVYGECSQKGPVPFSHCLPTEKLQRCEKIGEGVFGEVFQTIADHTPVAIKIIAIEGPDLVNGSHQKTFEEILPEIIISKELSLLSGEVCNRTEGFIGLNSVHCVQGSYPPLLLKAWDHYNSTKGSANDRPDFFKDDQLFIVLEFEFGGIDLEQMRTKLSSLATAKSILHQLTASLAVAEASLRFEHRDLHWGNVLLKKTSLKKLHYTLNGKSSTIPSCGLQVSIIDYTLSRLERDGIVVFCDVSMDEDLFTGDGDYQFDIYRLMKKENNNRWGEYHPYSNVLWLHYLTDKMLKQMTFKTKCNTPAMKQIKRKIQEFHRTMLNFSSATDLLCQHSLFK
The test is described as above. Type of test: cell-based. Further details: endogenous in cells; host or cells: HEK293. Conditions: CaNDY 2 μM, 4 days. Here is the method: as §1, §2

A further test concerns the target CLK1 (Homo sapiens, UniProt P49759). Described as above. It is filed as cell-based. Conditions: CaNDY 2 μM, 4 days. Further details: endogenous in cells; host or cells: HEK293. Here is the method:
as §1, §2

The target in the next test is T3, PIK3CA/PIK3R1 (Homo sapiens, UniProt P42336).
T3 construct: purchased Carna Biosciences
The experiment in a line: Kinase panel, CaNDY 1 µM. Type of test: biochemical. Conditions: CaNDY 1 µM relative to DMSO.

Another test addresses T4, CaMK1δ (Homo sapiens, UniProt Q8IU85).
T4 construct: purchased Carna Biosciences
The experiment in a line: Kinase panel, CaNDY 1 µM. Particulars: CaNDY 1 µM relative to DMSO. Type of test: biochemical.

In another test the target is T5, HGK (Homo sapiens, UniProt O95819).
T5 construct: purchased Carna Biosciences
The experiment in a line: Kinase panel, CaNDY 1 µM. Type of test: biochemical. Conditions: CaNDY 1 µM relative to DMSO.

In a further test the target is T6, EGFR(T790M/L858R) (Homo sapiens, UniProt P00533, L858R/T790M).
T6 construct: purchased Carna Biosciences
As to the kind of experiment: Kinase panel, CaNDY 1 µM. Particulars: CaNDY 1 µM relative to DMSO. It is filed as biochemical.

In test [2] the target is T1, DYRK1B. As to the kind of experiment: Kinase panel, CaNDY 1 µM. It is filed as biochemical. Further details: purchased Carna Biosciences. An excerpt:
Detailed information on the assay conditions is available on the website of Carna Biosciences (http://www.carnabio.com/english/index.html; Kobe, Japan). In brief, full-length human recombinant kinases were expressed using a baculovirus expression system as amino-terminal GST-fusion proteins, and purified by glutathione-Sepharose chromatography. The GenBank accession numbers of DYRK1A, DYRK1B, DYRK2, and DYRK3 were NP_001387.2, NP_004705.1, NP_003574.1, and NP_003573.2. Kinase activities were evaluated by Off-chip Mobility Shift Assay after reaction of 1 μM of the substrate DYRKtide-F with ATP (25 μM for DYRK1A, 50 μM for DYRK1B, 10 μM for DYRK2, and 5 μM for DYRK3). For each compound, a DMSO solution was diluted in assay buffer to yield a final concentration of 1% DMSO. After incubation for one hour at room temperature, substrate phosphorylation was analyzed by electrophoretic separation of the substrate and products using a Caliper LC3000 platform (Caliper Life Sciences, Mountain View, CA, USA). The phosphorylated product (P)/(P + substrate) ratio was calculated at each concentration of each small molecule and the percent inhibition was expressed relative to a control assay in the absence of the small molecule. […] The IC50 of each compound was calculated by interpolation on a log-concentration-response curve fitted with a four-parameter logistic equation.
All kinase assays were carried out at Carna Biosciences. The inhibitory map was made with Kinome Render[36].

The target in a further test is T7, PBK (Homo sapiens, UniProt Q96KB5).
T7 construct: purchased Carna Biosciences
As to the kind of experiment: Kinase panel, CaNDY 1 µM. Type of test: biochemical. Particulars: CaNDY 1 µM relative to DMSO.

The target of a further test is T8, CK2α1/β (Homo sapiens, UniProt P68400).
T8 construct: purchased Carna Biosciences
T8 sequence (P68400 whole entry): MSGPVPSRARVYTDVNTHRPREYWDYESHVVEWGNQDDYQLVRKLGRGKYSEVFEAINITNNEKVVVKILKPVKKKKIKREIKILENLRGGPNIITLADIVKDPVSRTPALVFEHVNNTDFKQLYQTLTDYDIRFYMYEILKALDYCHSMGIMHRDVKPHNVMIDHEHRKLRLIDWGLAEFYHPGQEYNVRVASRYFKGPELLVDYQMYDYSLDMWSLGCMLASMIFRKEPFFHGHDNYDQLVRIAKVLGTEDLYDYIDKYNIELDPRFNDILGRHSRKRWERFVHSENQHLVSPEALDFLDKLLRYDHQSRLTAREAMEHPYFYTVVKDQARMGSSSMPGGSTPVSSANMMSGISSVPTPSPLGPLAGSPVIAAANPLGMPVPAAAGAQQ
T8 sequence (P67870 whole entry partner): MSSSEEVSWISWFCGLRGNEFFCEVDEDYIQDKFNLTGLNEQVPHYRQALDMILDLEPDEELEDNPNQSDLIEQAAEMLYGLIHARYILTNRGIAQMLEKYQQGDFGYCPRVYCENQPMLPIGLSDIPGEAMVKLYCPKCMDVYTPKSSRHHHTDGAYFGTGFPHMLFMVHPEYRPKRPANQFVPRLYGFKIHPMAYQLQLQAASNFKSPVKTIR
As to the kind of experiment: Kinase panel, CaNDY 1 µM. It is filed as biochemical.

For the next test, the target named is T9, CaMK2γ (Homo sapiens, UniProt Q13555).
T9 construct: purchased Carna Biosciences
T9 sequence (Q13555 whole entry): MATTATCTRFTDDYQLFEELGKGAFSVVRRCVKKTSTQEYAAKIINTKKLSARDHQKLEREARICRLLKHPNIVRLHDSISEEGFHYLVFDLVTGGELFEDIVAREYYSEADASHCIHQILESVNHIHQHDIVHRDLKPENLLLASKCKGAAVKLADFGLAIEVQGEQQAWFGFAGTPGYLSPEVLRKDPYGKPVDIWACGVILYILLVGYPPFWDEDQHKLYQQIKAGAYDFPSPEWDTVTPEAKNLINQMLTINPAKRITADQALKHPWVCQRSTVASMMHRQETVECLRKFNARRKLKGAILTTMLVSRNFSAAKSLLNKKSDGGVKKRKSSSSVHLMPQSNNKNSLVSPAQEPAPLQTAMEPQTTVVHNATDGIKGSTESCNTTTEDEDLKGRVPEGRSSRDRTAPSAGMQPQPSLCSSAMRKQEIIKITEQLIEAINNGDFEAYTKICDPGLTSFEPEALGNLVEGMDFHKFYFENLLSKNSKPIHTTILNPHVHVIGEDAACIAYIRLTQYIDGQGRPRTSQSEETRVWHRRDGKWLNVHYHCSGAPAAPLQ
As to the kind of experiment: Kinase panel, CaNDY 1 µM. Conditions: CaNDY 1 µM relative to DMSO. Type of test: biochemical.

In another test the target is T10, PHKG1 (Homo sapiens, UniProt Q16816).
T10 construct: purchased Carna Biosciences
T10 sequence (Q16816 whole entry): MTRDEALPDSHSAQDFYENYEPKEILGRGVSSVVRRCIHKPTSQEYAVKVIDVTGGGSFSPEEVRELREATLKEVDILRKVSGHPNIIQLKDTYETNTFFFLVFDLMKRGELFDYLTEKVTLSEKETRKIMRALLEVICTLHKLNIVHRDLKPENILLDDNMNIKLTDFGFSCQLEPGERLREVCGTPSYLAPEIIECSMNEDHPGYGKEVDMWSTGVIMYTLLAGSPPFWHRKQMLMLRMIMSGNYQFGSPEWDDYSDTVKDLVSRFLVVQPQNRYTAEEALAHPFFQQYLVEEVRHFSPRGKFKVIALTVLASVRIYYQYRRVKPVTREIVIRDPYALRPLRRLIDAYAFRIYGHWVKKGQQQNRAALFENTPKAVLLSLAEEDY
As to the kind of experiment: Kinase panel, CaNDY 1 µM. Conditions: CaNDY 1 µM relative to DMSO. Type of test: biochemical.

The next test addresses T11, PDHK4 (Homo sapiens, UniProt Q16654).
T11 construct: purchased Carna Biosciences
The experiment in a line: Kinase panel, CaNDY 1 µM. It is filed as biochemical. Particulars: CaNDY 1 µM relative to DMSO.

The target of another test is T12, MAP3K4_Cascade (Homo sapiens, UniProt Q9Y6R4).
T12 construct: purchased Carna Biosciences
T12 sequence (Q9Y6R4 whole entry): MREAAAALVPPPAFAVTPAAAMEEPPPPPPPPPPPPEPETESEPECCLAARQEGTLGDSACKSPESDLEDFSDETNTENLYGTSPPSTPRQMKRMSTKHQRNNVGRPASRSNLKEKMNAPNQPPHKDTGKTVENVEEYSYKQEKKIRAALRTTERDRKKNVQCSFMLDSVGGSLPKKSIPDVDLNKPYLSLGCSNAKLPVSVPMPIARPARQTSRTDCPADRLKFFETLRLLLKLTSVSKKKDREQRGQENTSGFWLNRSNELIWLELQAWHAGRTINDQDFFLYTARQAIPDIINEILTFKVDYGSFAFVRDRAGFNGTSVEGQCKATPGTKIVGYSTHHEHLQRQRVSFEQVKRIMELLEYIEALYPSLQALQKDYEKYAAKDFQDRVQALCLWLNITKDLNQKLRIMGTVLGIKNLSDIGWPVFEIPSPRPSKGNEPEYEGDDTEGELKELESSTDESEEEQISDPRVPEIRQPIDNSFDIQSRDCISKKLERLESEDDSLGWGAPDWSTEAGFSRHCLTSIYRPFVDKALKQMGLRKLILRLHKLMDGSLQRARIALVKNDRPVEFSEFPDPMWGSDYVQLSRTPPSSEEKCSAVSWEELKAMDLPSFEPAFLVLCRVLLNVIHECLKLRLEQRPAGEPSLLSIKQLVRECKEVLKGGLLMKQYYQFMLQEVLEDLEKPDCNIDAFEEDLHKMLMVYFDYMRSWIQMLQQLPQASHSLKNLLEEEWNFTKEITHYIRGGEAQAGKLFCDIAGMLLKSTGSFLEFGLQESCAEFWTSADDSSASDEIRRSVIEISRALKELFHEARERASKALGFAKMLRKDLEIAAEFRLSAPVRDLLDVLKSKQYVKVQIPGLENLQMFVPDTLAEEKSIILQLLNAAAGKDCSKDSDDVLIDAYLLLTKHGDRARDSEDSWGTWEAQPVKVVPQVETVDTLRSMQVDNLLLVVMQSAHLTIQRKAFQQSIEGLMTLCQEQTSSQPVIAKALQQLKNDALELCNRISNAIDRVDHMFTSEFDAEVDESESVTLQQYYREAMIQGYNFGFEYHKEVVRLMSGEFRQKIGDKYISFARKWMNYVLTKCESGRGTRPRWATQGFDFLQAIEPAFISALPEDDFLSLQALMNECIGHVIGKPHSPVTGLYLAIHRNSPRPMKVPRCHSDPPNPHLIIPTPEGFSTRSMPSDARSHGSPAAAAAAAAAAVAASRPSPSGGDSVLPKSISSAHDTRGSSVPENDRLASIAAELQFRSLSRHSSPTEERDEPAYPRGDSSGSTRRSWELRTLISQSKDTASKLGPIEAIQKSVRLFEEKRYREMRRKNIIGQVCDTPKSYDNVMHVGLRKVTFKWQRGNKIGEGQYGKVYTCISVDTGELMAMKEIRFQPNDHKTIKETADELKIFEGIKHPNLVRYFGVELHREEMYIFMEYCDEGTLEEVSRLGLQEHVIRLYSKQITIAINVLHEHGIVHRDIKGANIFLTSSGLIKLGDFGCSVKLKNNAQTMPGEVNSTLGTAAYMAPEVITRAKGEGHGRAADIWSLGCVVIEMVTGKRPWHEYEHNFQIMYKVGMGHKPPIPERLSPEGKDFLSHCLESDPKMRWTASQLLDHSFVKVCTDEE
As to the kind of experiment: Kinase panel, CaNDY 1 µM. It is filed as biochemical. Conditions: CaNDY 1 µM relative to DMSO.

A further test addresses T13, PKCβ2 (Homo sapiens, UniProt P05771).
T13 construct: purchased Carna Biosciences
As to the kind of experiment: Kinase panel, CaNDY 1 µM. Type of test: biochemical. Particulars: CaNDY 1 µM relative to DMSO.

CLK1, sequence (P49759 whole entry): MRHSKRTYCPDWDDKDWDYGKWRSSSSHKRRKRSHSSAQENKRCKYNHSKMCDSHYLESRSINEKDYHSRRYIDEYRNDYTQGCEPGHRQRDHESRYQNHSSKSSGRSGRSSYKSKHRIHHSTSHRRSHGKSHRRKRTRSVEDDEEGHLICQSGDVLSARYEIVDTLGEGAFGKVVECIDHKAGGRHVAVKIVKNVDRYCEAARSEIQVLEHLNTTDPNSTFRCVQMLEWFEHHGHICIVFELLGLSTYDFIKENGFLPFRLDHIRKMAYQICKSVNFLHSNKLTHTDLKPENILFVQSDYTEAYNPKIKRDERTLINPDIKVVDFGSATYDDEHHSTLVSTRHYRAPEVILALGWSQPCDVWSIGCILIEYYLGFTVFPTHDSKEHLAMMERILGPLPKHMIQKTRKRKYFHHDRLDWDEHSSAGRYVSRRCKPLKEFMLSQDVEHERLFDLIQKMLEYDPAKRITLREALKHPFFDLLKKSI
T13 sequence (P05771 1-673 isoform P05771-2): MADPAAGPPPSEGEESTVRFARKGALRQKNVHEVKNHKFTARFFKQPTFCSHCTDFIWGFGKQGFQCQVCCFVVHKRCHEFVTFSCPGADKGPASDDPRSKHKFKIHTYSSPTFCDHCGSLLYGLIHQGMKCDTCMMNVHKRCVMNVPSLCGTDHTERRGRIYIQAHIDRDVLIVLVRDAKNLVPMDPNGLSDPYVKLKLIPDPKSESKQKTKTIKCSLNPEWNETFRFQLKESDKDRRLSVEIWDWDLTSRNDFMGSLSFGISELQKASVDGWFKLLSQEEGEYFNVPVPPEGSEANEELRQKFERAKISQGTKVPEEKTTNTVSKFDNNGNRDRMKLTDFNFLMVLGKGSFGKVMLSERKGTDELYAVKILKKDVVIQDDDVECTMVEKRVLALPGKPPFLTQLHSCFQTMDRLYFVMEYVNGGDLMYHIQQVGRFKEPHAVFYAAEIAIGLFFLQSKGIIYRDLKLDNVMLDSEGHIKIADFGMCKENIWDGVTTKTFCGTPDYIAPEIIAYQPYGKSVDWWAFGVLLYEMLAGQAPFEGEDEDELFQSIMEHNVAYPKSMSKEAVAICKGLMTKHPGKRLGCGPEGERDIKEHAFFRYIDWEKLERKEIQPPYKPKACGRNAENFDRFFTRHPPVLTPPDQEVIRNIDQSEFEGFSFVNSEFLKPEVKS

As a reminder, the remaining activity is the signal under treatment as a percentage of the control signal. For orientation: inhibition means the relative decrease from the control value, in per cent. Turning to `[H]/N=C1/NC(=O)C(=Cc2ccc3c(c2)CCO3)S1` [CaNDY, (Z)-5-[(2,3-dihydrobenzofuran-5-yl)methylene]-2-iminothiazolidin-4-one], the “protein expression of DYRK1B” value at DYRK1B [1] is recorded as “decreased expression”. Besides, on Haspin, the “protein expression of Haspin” value is recorded as “decreased expression”. Further, at CLK1, the “protein expression of CLK1” value is “decreased expression”. Moreover, the remaining activity at 1 µM on PIK3CA/PIK3R1 amounted to 38.5%; on CaMK1δ it was 103%; at HGK, 42.1%; at DYRK1B [2] (CaNDY 1 µM relative to DMSO) it was 3.7%; on PBK it was 98.4%; at CK2α1/β (CK2α1/β, CaNDY 1 µM relative to DMSO) it was 34.7%. The remaining activity at 1 µM amounted to 101% on CaMK2γ; 92.1% at PHKG1; 92% at PDHK4; 101% at MAP3K4_Cascade; 88.2% at PKCβ2. The “%Activity” value at EGFR(T790M/L858R) is on record as 106.6%. The inhibition at 1 µM was more than 90% at DYRK1B [2] (1 μM CaNDY, read-out: percentage inhibition) and 65% on CK2α1/β (CK2α, 1 μM CaNDY, read-out: percentage inhibition).
